Peptide text beside a SMILES is read from it.
Target: T1, batroxobin fibrin monomer (Homo sapiens, UniProt P02671+P02675+P02679)
T1 construct: fibrin monomer which was formed by batroxobin (lacking fibrinopeptide A); made in house; host or cells: not recombinant: made from fibrinogen by treatment with batroxobin (Bothrops atrox venom enzyme)
T1 sequence (P02671 36-629 isoform P02671-2): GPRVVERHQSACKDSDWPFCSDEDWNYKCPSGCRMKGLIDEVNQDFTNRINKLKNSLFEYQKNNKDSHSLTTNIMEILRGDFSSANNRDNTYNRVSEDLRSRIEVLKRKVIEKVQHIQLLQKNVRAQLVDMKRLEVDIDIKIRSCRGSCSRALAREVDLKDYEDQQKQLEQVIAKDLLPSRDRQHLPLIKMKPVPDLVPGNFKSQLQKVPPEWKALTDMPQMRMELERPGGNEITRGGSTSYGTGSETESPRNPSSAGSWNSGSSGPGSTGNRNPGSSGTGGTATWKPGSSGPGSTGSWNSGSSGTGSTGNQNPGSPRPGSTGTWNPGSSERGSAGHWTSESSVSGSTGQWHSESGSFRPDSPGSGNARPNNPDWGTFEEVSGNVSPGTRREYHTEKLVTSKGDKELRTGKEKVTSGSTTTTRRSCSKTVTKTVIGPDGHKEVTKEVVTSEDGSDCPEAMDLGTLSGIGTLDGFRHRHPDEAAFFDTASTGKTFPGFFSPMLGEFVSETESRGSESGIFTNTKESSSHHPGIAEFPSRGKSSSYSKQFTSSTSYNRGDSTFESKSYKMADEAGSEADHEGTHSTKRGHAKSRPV
T1 sequence (P02675 31-491): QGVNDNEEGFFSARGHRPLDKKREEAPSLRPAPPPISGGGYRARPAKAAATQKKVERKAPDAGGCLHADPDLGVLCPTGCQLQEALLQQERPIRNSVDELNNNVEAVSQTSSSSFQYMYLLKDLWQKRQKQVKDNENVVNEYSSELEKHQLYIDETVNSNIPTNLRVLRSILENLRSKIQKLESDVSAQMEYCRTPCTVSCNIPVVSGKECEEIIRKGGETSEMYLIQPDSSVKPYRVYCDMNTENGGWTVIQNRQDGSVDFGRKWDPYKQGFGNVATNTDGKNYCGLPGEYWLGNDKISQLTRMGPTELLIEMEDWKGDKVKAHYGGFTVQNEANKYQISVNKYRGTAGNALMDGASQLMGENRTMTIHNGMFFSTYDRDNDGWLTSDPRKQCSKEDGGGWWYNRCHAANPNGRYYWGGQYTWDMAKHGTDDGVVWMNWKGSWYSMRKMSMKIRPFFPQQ
T1 sequence (P02679 27-437 isoform P02679-2): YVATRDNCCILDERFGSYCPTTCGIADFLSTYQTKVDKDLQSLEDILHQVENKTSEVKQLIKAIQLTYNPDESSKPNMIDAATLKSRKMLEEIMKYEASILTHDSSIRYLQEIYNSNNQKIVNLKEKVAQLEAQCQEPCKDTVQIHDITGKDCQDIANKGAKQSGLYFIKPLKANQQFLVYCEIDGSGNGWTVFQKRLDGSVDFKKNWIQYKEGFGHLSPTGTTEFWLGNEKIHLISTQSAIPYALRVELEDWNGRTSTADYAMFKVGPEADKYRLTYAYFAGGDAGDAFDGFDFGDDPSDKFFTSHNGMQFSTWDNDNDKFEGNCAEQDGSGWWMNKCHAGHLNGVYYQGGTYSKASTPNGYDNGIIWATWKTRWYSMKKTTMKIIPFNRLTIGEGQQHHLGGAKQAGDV
Assay: Inhibition of fibrin monomer polymerization (absorbance at 350 nm), batroxobin fibrin monomer
Type: biochemical
Protocol: Fibrin monomer was prepared according to the method of Belitser et al, Biochem. Biophys. Acta 154, 367-375 (1968) using either thrombin or batroxobin (an enzyme from the venom of Bothrops atrox). The polymerization of fibrin monomer which was formed by batroxobin (lacking fibrinopeptide A) or by thrombin (lacking fibrinopeptides A and B) was inhibited by D1 Peptide. Polymerization was measured spectrophotometrically at 350 nm as has been described in Budzynski, Biochem. Biophys. Acta 584, 284-287 (1979). […] At zero time the recorder was started and 0.01 ml of fibrin monomer (1.5 mg/ml in 0.02M acetic acid) was added, the cells were inverted, and the increase in absorbance at 350 nm was measured continuously for 15 min or until plateau levels were reached. For batroxobin fibrin monomer 0.15 ml of buffer or buffer containing D1 Peptide was mixed with 0.05 ml of batroxobin fibrin monomer (1.5 mg/ml in 0.02M acetic acid). The initial rate of polymerization was calculated from the slope of the steepest part of the curve and expressed as the increase in absorbance per min (A350 ·min^-1).
In order to assess the effect of D1 Peptide on fibrin monomer polymerization over a wide range of concentrations, batroxobin fibrin monomer concentration was varied from 3.3×10^-8 M to 1.75×10^-7 M and the maximum rate of polymerization measured in the absence or presence of 2.5×10^-7 M D1 Peptide (FIG. 5). […]

## CC[C@H](C)[C@H](NC(=O)[C@H](CCCCN)NC(=O)[C@H](CCSC)NC(=O)[C@@H](NC(=O)[C@@H](NC(=O)[C@H](CCCCN)NC(=O)[C@H](CCCCN)NC(=O)[C@H](CCSC)NC(=O)[C@H](CO)NC(=O)[C@H](Cc1ccc(O)cc1)NC(=O)[C@H](Cc1c[nH]c2ccccc12)NC(=O)[C@H](CCCNC(=N)N)NC(=O)[C@@H](N)[C@@H](C)O)[C@@H](C)O)[C@@H](C)O)C(=O)N[C@H](C(=O)N1CCC[C@H]1C(=O)N[C@@H](Cc1ccccc1)C(=O)N[C@@H](CC(N)=O)C(=O)N[C@@H](CCCNC(=N)N)C(=O)N[C@@H](CC(C)C)C(=O)N[C@H](C(=O)N[C@H](C(=O)NCC(=O)N[C@@H](CCC(=O)O)C(=O)NCC(=O)N[C@@H](CCC(N)=O)C(=O)N[C@@H](CCC(N)=O)C(=O)N[C@@H](Cc1c[nH]cn1)C(=O)N[C@@H](Cc1c[nH]cn1)C(=O)N[C@@H](CC(C)C)C(=O)NCC(=O)NCC(=O)N[C@@H](C)C(=O)N[C@@H](CCCCN)C(=O)N[C@@H](CCC(N)=O)C(=O)N[C@@H](C)C(=O)NCC(=O)N[C@@H](CC(=O)O)C(=O)N[C@H](C(=O)O)C(C)C)[C@@H](C)CC)[C@@H](C)O)[C@@H](C)CC [D1 Peptide] (H-TRWYSMKKTTMKIIPFNRLTIGEGQQHHLGGAKQAGDV-OH)
Batroxobin fibrin monomer 3.3×10^-8 M to 1.75×10^-7 M
  mode of inhibition of polymerization: competitive inhibitor
Maximum rate 0.2 A350·min^-1, D1 Peptide 2.6×10^-7 M, 7.8×10^-8 M without peptide
  concentration of fibrin monomer necessary to achieve the same rate of polymerization (apparent [FM]): 142 nM

Source: patent publication US4455290A, “Inhibition of fibrin polymerization by a peptide isolated from fibrin Fragment D1” (Research Corporation, priority 1981, dated 1984)
